For one data set, the system named is Streptococcus pyogenes. In words: Antibacterial activity against erythromycin-resistant Streptococcus pyogenes ATCC 19615 assessed as inhibition of visible bacterial growth incubated for 18 hrs by broth microdilution method. The class given is functional. (Dilution methods test growth across graded concentrations, often in twofold steps.)
For data set [1], the system named is Streptococcus agalactiae. In words: Antibacterial activity against erythromycin-resistant Streptococcus agalactiae 19-9 assessed as inhibition of visible bacterial growth incubated for 18 hrs by broth microdilution method. The class given is functional.
The subject of data set [2] is Streptococcus agalactiae. In words: Antibacterial activity against erythromycin-resistant Streptococcus agalactiae 19-8 assessed as inhibition of visible bacterial growth incubated for 18 hrs by broth microdilution method. The class given is functional.
Data set [3] has as its system Streptococcus pneumoniae. In words: Antibacterial activity against erythromycin-resistant Streptococcus pneumoniae SPN19-14 assessed as inhibition of visible bacterial growth incubated for 18 hrs by broth microdilution method. The class given is functional.
Data set [4] deals with Streptococcus pneumoniae. In words: Antibacterial activity against erythromycin-resistant Streptococcus pneumoniae SPN19-13 assessed as inhibition of visible bacterial growth incubated for 18 hrs by broth microdilution method. The class given is functional.
Data set [5] has as its system Streptococcus pneumoniae. In words: Antibacterial activity against erythromycin-resistant Streptococcus pneumoniae SPN19-8 assessed as inhibition of visible bacterial growth incubated for 18 hrs by broth microdilution method. The class given is functional.
Data set [6] has as its system Staphylococcus epidermidis. In words: Antibacterial activity against erythromycin-resistant Staphylococcus epidermidis 19-11 assessed as inhibition of visible bacterial growth incubated for 18 hrs by broth microdilution method. The class given is functional.
Data set [7] has as its system Staphylococcus epidermidis. In words: Antibacterial activity against erythromycin-resistant Staphylococcus epidermidis 19-9 assessed as inhibition of visible bacterial growth incubated for 18 hrs by broth microdilution method. The class given is functional.
The test system of data set [8] is Staphylococcus epidermidis. In words: Antibacterial activity against erythromycin-resistant Staphylococcus epidermidis 19-8 assessed as inhibition of visible bacterial growth incubated for 18 hrs by broth microdilution method. The class given is functional.
For data set [9], the system named is Staphylococcus epidermidis. In words: Antibacterial activity against erythromycin-resistant Staphylococcus epidermidis 19-6 assessed as inhibition of visible bacterial growth incubated for 18 hrs by broth microdilution method. The class given is functional.
For data set [10], the system named is Staphylococcus epidermidis. In words: Antibacterial activity against erythromycin-resistant Staphylococcus epidermidis 19-4 assessed as inhibition of visible bacterial growth incubated for 18 hrs by broth microdilution method. The class given is functional.
Data set [11] relates to Staphylococcus epidermidis. In words: Antibacterial activity against erythromycin-resistant Staphylococcus epidermidis 19-5 assessed as inhibition of visible bacterial growth incubated for 18 hrs by broth microdilution method. The class given is functional.
Data set [12] relates to Moraxella catarrhalis. In words: Antibacterial activity against Moraxella catarrhalis BCA 19-5 assessed as inhibition of bacterial growth incubated for 24 hrs by CLSI based broth microdilution method. The class given is functional. The conditions noted are these: Moraxella catarrhalis, BCA 19-5, 24 h, read-out: MIC.
The test system of data set [13] is Moraxella catarrhalis. In words: Antibacterial activity against Moraxella catarrhalis BCA 19-6 assessed as inhibition of bacterial growth incubated for 24 hrs by CLSI based broth microdilution method. The class given is functional. As to conditions: Moraxella catarrhalis, BCA 19-6, 24 h, read-out: MIC.
Data set [14] relates to Moraxella catarrhalis. In words: Antibacterial activity against Moraxella catarrhalis BCA 19-31 assessed as inhibition of bacterial growth incubated for 24 hrs by CLSI based broth microdilution method. The class given is functional. As to conditions: BCA 19-31, 24 h.
The test system of data set [15] is Haemophilus influenzae. In words: Antibacterial activity against Haemophilus influenzae HIN 19-15 assessed as inhibition of bacterial growth incubated for 20 to 24 hrs by CLSI based broth microdilution method. The class given is functional. As to conditions: time 20-24 hrs.
Data set [16] deals with Haemophilus influenzae. In words: Antibacterial activity against Haemophilus influenzae HIN 19-18 assessed as inhibition of bacterial growth incubated for 20 to 24 hrs by CLSI based broth microdilution method. The conditions noted are these: HIN 19-18, time 20-24 hrs. The class given is functional.
The test system of the next data set is Escherichia coli. In words: Antibacterial activity against Escherichia coli ATCC 35218 assessed as inhibition of visible bacterial growth. The class given is functional, organism-based.
Data set [17] in a line: Cytotoxicity against mouse AML12 cells assessed as reduction in cell viability incubated for 48 hrs by MTT assay. The class given is toxicity, cell-based. Background: Tetrazolium assays rely on reduction of a dye to a coloured formazan, in cell work by metabolically active cells.
For data set [18], the system named is Streptococcus pneumoniae. In words: Potency index, ratio of telithromycin MIC to test compound MIC for antibacterial activity against Streptococcus pneumoniae SPN19-13 assessed as inhibition of visible bacterial growth incubated for 18 hrs by broth microdilution method. The class given is functional.
Data set [19] deals with Streptococcus pneumoniae. In words: Potency index, ratio of telithromycin MIC to test compound MIC for antibacterial activity against Streptococcus pneumoniae SPN19-8 assessed as inhibition of visible bacterial growth incubated for 18 hrs by broth microdilution method. The class given is functional.
Data set [20] deals with Staphylococcus epidermidis. In words: Potency index, ratio of telithromycin MIC to test compound MIC for antibacterial activity against erythromycin-resistant Staphylococcus epidermidis 19-11 assessed as inhibition of visible bacterial growth incubated for 18 hrs by broth microdilution method. The class given is functional.
Data set [21] deals with Staphylococcus epidermidis. In words: Potency index, ratio of telithromycin MIC to test compound MIC for antibacterial activity against erythromycin-resistant Staphylococcus epidermidis 19-9 assessed as inhibition of visible bacterial growth incubated for 18 hrs by broth microdilution method. The class given is functional.
Data set [22] deals with Staphylococcus epidermidis. In words: Potency index, ratio of telithromycin MIC to test compound MIC for antibacterial activity against erythromycin-resistant Staphylococcus epidermidis 19-8 assessed as inhibition of visible bacterial growth incubated for 18 hrs by broth microdilution method. The class given is functional.
For data set [23], the system named is Staphylococcus epidermidis. In words: Potency index, ratio of telithromycin MIC to test compound MIC for antibacterial activity against erythromycin-resistant Staphylococcus epidermidis 19-6 assessed as inhibition of visible bacterial growth incubated for 18 hrs by broth microdilution method. The class given is functional.
Data set [24] concerns Staphylococcus epidermidis. In words: Potency index, ratio of telithromycin MIC to test compound MIC for antibacterial activity against erythromycin-resistant Staphylococcus epidermidis 19-5 assessed as inhibition of visible bacterial growth incubated for 18 hrs by broth microdilution method. The class given is functional.
In data set [25] the test system is Staphylococcus epidermidis. In words: Potency index, ratio of telithromycin MIC to test compound MIC for antibacterial activity against erythromycin-resistant Staphylococcus epidermidis 19-4 assessed as inhibition of visible bacterial growth incubated for 18 hrs by broth microdilution method. The class given is functional.
The test system of data set [26] is Streptococcus pneumoniae. In words: Potency index, ratio of telithromycin MIC to test compound MIC for antibacterial activity against Streptococcus pneumoniae SPN19-14 assessed as inhibition of visible bacterial growth incubated for 18 hrs by broth microdilution method. The class given is functional.

Converted amounts (≈) assume the structure as drawn. The source made the active and inactive calls. The calls are words filed in the database; no cut-off is given here. Where only a bound is given, the exact number is not on record here.

Consider `CC[C@H]1OC(=O)[C@@](C)(F)C(=O)[C@H](C)[C@@H](O[C@@H]2O[C@H](C)C[C@H](N(C)C)[C@H]2O)[C@](C)(OC)C[C@@H](C)C(=O)[C@H](C)[C@H]2N(CCCOC(=O)Nc3cccnc3)C(=O)O[C@]12C`, for which the MIC in the data set with Streptococcus pyogenes was < 0.03 µg/mL; in the data set on Streptococcus agalactiae [1] it was 0.25 µg/mL (≈ 0.309 µM); in the data set with Streptococcus agalactiae [2], < 0.03 µg/mL; in the data set on Streptococcus pneumoniae [3], 0.125 µg/mL (≈ 0.155 µM); in the data set on Streptococcus pneumoniae [4] it was 0.125 µg/mL (≈ 0.155 µM); in the data set on Streptococcus pneumoniae [5] it was 0.125 µg/mL (≈ 0.155 µM). For the same molecule, the MIC worked out at 0.125 µg/mL (≈ 0.155 µM) in [6]; 0.5 µg/mL (≈ 0.618 µM) in data set [7]; 0.125 µg/mL (≈ 0.155 µM) in [8]; 125 µg/mL (≈ 155 µM) in [9]; 0.25 µg/mL (≈ 0.309 µM) in [10]; 0.125 µg/mL (≈ 0.155 µM) in data set [11]. Moreover, the MIC stood at 0.06 µg/mL (≈ 0.0742 µM) in the data set on Moraxella catarrhalis [12]; 0.06 µg/mL (≈ 0.0742 µM) with Moraxella catarrhalis [13]; 0.06 µg/mL (≈ 0.0742 µM) with Moraxella catarrhalis [14]; 4 µg/mL (≈ 4.94 µM) in the data set on Haemophilus influenzae [15]; 4 µg/mL (≈ 4.94 µM) in the data set on Haemophilus influenzae [16]. For the same molecule, the result in the data set with Escherichia coli was Active. Besides, the CC50 (in general, the concentration at which the toxic effect on the cells reaches its halfway point) at 48 h in data set [17] is > 100 µM.

As to `CC[C@H]1OC(=O)[C@@](C)(F)C(=O)[C@H](C)[C@@H](O[C@@H]2O[C@H](C)C[C@H](N(C)C)[C@H]2O)[C@](C)(OC)C[C@@H](C)C(=O)[C@H](C)[C@H]2N(CCCOC(=O)Nc3cccc(F)c3)C(=O)O[C@]12C`, the Ratio in the data set with Streptococcus pneumoniae [18] is reported as <4; in the data set with Streptococcus pneumoniae [19], <4; in [20] it was 4; in [21], 4; in data set [22], 4; in data set [23], 4. Also, the Ratio is listed as 4 in [24], 4 in [25] and <4 in the data set with Streptococcus pneumoniae [26]. The MIC in the data set on Streptococcus pyogenes is < 0.03 µg/mL; in the data set on Streptococcus agalactiae [1] it was 0.06 µg/mL (≈ 0.0726 µM); with Streptococcus agalactiae [2] it was < 0.03 µg/mL; in the data set with Streptococcus pneumoniae [3] it was < 0.03 µg/mL; in the data set with Streptococcus pneumoniae [4], < 0.03 µg/mL; in the data set on Streptococcus pneumoniae [5] it was < 0.03 µg/mL. In addition, the MIC in [6], in [7], in [8], in data set [9], in data set [10] and in [11] was < 0.03 µg/mL in each case. In addition, the MIC is < 0.03 µg/mL with Moraxella catarrhalis [12]; < 0.03 µg/mL in the data set on Moraxella catarrhalis [13]; < 3 µg/mL in the data set on Moraxella catarrhalis [14]; 8 µg/mL (≈ 9.69 µM) in the data set on Haemophilus influenzae [15]; 4 µg/mL (≈ 4.84 µM) in the data set with Haemophilus influenzae [16]. Besides, the result with Escherichia coli was Active. Moreover, in data set [17], the CC50 at 48 h came out at 33.7 µM.

Source of the values: ChEMBL document CHEMBL5543097, “Synthesis and structure-activity relationships of novel 14-membered 2-fluoro ketolides with structural modification at the C11 position” (Eur J Med Chem, 2024).
